The NIST ThermoML archive (doi:10.1021/je025566c)
Numbers after ± are expanded uncertainties.

Details: Liquid

CCOCCO [2-ethoxyethan-1-ol]
vapor or sublimation pressure (333.15 K): 5.3 ± 0.042 kPa
vapor or sublimation pressure (343.15 K): 8.646 ± 0.044 kPa
vapor or sublimation pressure (353.15 K): 13.62 ± 0.046 kPa

CC(O)c1ccccc1 (centres undefined) [1-phenylethanol]
vapor or sublimation pressure (353.15 K): 0.76 ± 0.031 kPa
vapor or sublimation pressure (358.41 K): 1.033 ± 0.031 kPa
vapor or sublimation pressure (362.36 K): 1.296 ± 0.031 kPa
vapor or sublimation pressure (366.37 K): 1.613 ± 0.032 kPa
vapor or sublimation pressure (371.46 K): 2.112 ± 0.032 kPa
vapor or sublimation pressure (373.15 K): 2.301 ± 0.032 kPa
vapor or sublimation pressure (377.83 K): 2.909 ± 0.032 kPa
vapor or sublimation pressure (382.98 K): 3.728 ± 0.032 kPa
vapor or sublimation pressure (387.28 K): 4.557 ± 0.033 kPa
vapor or sublimation pressure (393.15 K): 5.934 ± 0.033 kPa
vapor or sublimation pressure (393.34 K): 5.985 ± 0.033 kPa
vapor or sublimation pressure (398.01 K): 7.325 ± 0.034 kPa

Oc1ccccc1 [phenol]
vapor or sublimation pressure (353.15 K): 2.037 ± 0.041 kPa
vapor or sublimation pressure (373.15 K): 5.541 ± 0.042 kPa
vapor or sublimation pressure (393.15 K): 13.15 ± 0.045 kPa

CCCCOC=O [butyl methanoate]
vapor or sublimation pressure (313.16 K): 7.978 ± 0.034 kPa
vapor or sublimation pressure (318.33 K): 10.19 ± 0.035 kPa
vapor or sublimation pressure (323.32 K): 12.79 ± 0.036 kPa
vapor or sublimation pressure (328.57 K): 16.08 ± 0.037 kPa
vapor or sublimation pressure (333.14 K): 19.5 ± 0.039 kPa
vapor or sublimation pressure (333.15 K): 19.5 ± 0.039 kPa
vapor or sublimation pressure (343.14 K): 29.1 ± 0.044 kPa
vapor or sublimation pressure (343.15 K): 29.1 ± 0.044 kPa
vapor or sublimation pressure (353.14 K): 42.24 ± 0.051 kPa
vapor or sublimation pressure (353.15 K): 42.24 ± 0.051 kPa
vapor or sublimation pressure (358.67 K): 51.34 ± 0.056 kPa
